Drawing on publication PMC5190074, “BET inhibition as a new strategy for the treatment of gastric cancer” (Oncotarget, 2016), this text covers ΔTm and Kd for one compound.

Assay [1] addresses T1, ATAD2 (Homo sapiens, UniProt Q6PL18).
T1 construct: bromodomain
Kind of assay: biochemical. On the set-up: thermal shift assay (real-time PCR machine), melting temperature shift of recombinant bromodomains at 2 uM protein. The protocol: (§1) The recombinant bromodomains at 2 μM were mixed with 10 μM inhibitors. The assays and data evaluation for melting temperatures were performed using a Real-Time PCR Mx3005p machine (Stratagene) and the protocols previously described. Experiments profiling the final compound (PNZ5) were performed in quadruplicates. […] Since its discovery in our own labs, similar inhibitors have also been disclosed by researchers at Boehringer Ingelheim [reference: patent, WO 2014/154760 [31]]. The inhibitor contains two possible acetyl-lysine mimetic moieties. In order to obtain molecular insights on the interaction of the developed inhibitor, the crystal structure of the first bromodomain of BRD4 in complex with PNZ5 was solved at 1.85 Å (Figure 2C and Supplementary Table 4, 5FBX.pdb). The inhibitor, coordinating residues and water molecules were well defined by the electron density. The dimethylisoxazole moiety mimicked the acetyl lysine side chain and formed two canonical hydrogen-bond interactions with Asn140 and water mediated hydrogen-bond with Tyr 97 (Figure 2C). The common network of waters within the binding site was also conserved in the BRD4(1)-PNZ5 complex. The compound was further stabilized by lipophilic interactions with residues forming the binding site Leu92, Leu94, Ile146. The [compound left out] substituent was well accommodated next to the WPF shelf, as well as the N1-methyl substituent that formed hydrophobic interactions with Trp81. The carbonyl on the isoindolinone established a water-mediated hydrogen bond with Lys91.

The target of assay [2] is T2, TAF1L(1) (Homo sapiens, UniProt Q8IZX4).
T2 construct: bromodomain 1
Description: biochemical. Also noted: thermal shift assay (real-time PCR machine), melting temperature shift of recombinant bromodomains at 2 uM protein. The protocol: as §1

In assay [3] the target is T3, SMARCA2 (Homo sapiens, UniProt P51531).
T3 construct: bromodomain
T3 sequence (P51531 whole entry): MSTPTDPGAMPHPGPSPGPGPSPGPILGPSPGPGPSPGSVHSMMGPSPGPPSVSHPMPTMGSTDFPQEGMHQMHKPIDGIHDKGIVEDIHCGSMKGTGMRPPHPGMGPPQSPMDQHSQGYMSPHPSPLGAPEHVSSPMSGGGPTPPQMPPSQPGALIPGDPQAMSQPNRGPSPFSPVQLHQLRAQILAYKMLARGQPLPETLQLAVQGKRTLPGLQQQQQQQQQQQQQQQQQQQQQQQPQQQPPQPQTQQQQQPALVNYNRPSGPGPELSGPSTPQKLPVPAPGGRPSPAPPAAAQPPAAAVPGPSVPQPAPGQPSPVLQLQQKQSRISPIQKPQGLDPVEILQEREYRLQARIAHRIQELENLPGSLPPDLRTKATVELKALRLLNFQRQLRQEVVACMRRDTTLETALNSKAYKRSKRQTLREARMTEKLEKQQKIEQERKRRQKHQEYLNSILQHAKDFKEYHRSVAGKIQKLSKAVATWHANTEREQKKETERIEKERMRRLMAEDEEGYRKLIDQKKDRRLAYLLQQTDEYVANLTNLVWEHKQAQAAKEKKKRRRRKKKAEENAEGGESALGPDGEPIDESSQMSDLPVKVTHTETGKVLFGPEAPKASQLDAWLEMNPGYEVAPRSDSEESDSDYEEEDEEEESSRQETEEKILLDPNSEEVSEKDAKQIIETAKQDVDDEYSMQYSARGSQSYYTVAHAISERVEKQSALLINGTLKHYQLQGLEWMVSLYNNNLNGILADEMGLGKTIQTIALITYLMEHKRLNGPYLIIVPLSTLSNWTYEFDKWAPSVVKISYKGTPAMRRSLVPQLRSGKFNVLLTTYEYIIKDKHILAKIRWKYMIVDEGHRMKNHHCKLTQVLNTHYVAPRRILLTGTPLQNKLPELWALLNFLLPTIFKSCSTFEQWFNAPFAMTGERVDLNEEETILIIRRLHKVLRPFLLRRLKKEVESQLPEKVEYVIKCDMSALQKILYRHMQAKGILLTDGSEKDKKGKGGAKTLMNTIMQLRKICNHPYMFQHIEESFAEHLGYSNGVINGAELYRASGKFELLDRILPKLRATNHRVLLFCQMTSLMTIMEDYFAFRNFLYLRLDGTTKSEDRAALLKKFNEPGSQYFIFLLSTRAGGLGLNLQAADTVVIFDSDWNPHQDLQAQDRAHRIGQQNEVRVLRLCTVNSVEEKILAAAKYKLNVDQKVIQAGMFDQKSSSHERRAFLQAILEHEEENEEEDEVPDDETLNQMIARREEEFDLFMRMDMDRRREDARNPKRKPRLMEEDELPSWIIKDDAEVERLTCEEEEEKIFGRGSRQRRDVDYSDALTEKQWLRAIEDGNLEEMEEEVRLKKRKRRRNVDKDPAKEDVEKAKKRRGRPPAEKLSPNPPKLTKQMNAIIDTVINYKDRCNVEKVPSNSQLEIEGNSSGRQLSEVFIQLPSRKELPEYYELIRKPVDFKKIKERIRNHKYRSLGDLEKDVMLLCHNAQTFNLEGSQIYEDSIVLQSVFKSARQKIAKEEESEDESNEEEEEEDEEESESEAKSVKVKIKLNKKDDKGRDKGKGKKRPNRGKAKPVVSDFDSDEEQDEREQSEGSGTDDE
Description: biochemical. Also noted: thermal shift assay (real-time PCR machine), melting temperature shift of recombinant bromodomains at 2 uM protein. The protocol: as §1

Assay [4] deals with T4, PB1(5) (Homo sapiens, UniProt Q86U86).
T4 construct: gene PBRM1; bromodomain 5
Kind of assay: biochemical. Also noted: thermal shift assay (real-time PCR machine), melting temperature shift of recombinant bromodomains at 2 uM protein. Here is the method:
as §1

Assay [5] has as its target T5, TIF1-phd-bromo (Homo sapiens, UniProt O15164).
T5 construct: gene TRIM24; PHD-bromodomain
Kind of assay: biochemical. Also noted: thermal shift assay (real-time PCR machine), melting temperature shift of recombinant bromodomains at 2 uM protein. Here is the method:
as §1

For assay [6], the target named is T6, ATAD2B (Homo sapiens, UniProt Q9ULI0).
T6 construct: bromodomain
Kind of assay: biochemical. Also noted: thermal shift assay (real-time PCR machine), melting temperature shift of recombinant bromodomains at 2 uM protein. The protocol:
as §1

The target in assay [7] is T7, PB1(4) (Homo sapiens, UniProt Q86U86).
T7 construct: gene PBRM1; bromodomain 4
Description: biochemical. On the set-up: thermal shift assay (real-time PCR machine), melting temperature shift of recombinant bromodomains at 2 uM protein. Here is the method: as §1

The target in assay [8] is T8, TIF1-bromo (Homo sapiens, UniProt O15164).
T8 construct: gene TRIM24; bromodomain
T8 sequence (O15164 whole entry): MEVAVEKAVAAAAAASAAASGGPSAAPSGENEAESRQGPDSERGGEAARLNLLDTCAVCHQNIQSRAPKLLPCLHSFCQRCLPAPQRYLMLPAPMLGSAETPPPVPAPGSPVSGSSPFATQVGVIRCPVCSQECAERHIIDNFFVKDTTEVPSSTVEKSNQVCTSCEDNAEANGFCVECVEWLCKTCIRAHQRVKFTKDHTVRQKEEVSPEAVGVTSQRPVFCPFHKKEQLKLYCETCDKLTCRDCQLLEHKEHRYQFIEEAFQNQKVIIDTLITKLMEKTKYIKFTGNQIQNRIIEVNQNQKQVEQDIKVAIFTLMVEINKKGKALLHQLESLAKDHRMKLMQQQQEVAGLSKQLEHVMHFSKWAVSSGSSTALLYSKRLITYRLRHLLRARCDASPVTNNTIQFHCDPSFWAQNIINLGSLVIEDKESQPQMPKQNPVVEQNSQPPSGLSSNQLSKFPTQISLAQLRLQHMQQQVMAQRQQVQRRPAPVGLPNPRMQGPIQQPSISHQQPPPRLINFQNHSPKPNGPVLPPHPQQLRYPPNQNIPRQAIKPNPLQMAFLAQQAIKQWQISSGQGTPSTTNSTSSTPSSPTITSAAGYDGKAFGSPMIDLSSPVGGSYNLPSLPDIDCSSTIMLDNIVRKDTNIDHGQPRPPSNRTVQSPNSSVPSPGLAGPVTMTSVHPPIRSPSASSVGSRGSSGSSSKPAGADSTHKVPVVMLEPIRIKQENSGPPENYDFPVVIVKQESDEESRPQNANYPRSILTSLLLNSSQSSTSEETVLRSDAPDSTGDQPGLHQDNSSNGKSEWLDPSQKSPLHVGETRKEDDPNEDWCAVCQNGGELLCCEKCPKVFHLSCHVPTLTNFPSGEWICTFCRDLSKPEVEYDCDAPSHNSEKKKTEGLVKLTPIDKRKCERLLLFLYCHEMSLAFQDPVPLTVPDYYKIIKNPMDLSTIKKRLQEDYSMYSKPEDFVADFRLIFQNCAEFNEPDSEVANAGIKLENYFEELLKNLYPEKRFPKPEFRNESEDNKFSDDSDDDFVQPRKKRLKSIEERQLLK
Kind of assay: biochemical. Also noted: thermal shift assay (real-time PCR machine), melting temperature shift of recombinant bromodomains at 2 uM protein. The protocol: as §1

For assay [9], the target named is T9, BRD4(1), first bromodomain of BRD4 (Homo sapiens, UniProt O60885).
T9 construct: first bromodomain; BRD4_HUMAN O60884-1 fragment 44-168 (crystallography)
Description: ITC; co-crystal structure at […] Å. It counts as binding.

The target in assay [10] is T9, BRD4(1), first bromodomain of BRD4. Kind of assay: biochemical. Also noted: thermal shift assay, SAR of isoxazole compounds against BRD4(1). The conditions noted are these: read-out: ΔTm Shift (oC). Here is the method: The recombinant bromodomains at 2 μM were mixed with 10 μM inhibitors. The assays and data evaluation for melting temperatures were performed using a Real-Time PCR Mx3005p machine (Stratagene) and the protocols previously described. Experiments profiling the final compound (PNZ5) were performed in quadruplicates. Isoxazoles have been explored previously as BET bromodomain inhibitors. We have developed PNZ5, a new isoxazole-based inhibitor originating from the lead compound S1 (Figure 1). PNZ5 was developed as the result of a structure-based lead optimisation program. Dihydroindene S1 was identified as a ligand against BRD4(1) (pIC50 5.9). Investigation of the co-crystal structure of S1 with BRD4(1) [PDB ID 4GPJ] identified a number of positions for potential optimisation: addition of a carbonyl group at C-3 was envisaged to benefit from hydrogen-bonds (H-bonds) to a network of conserved water molecules; replacement of C-2 with a nitrogen would minimise interactions in the narrow ZA channel of BRD4(1) and N-substitution could provide further binding interactions with the protein; and alternative substitution of the hydroxyl at C-1 would provide a handle for further optimisation. […] The three best compounds, S3, S5 and S7, were destined to be separated into their component enantiomers for further evaluation (Supplementary Table 2). […]

The Kd is the constant that tells how readily two partners part at equilibrium.

T1 sequence (Q6PL18 whole entry): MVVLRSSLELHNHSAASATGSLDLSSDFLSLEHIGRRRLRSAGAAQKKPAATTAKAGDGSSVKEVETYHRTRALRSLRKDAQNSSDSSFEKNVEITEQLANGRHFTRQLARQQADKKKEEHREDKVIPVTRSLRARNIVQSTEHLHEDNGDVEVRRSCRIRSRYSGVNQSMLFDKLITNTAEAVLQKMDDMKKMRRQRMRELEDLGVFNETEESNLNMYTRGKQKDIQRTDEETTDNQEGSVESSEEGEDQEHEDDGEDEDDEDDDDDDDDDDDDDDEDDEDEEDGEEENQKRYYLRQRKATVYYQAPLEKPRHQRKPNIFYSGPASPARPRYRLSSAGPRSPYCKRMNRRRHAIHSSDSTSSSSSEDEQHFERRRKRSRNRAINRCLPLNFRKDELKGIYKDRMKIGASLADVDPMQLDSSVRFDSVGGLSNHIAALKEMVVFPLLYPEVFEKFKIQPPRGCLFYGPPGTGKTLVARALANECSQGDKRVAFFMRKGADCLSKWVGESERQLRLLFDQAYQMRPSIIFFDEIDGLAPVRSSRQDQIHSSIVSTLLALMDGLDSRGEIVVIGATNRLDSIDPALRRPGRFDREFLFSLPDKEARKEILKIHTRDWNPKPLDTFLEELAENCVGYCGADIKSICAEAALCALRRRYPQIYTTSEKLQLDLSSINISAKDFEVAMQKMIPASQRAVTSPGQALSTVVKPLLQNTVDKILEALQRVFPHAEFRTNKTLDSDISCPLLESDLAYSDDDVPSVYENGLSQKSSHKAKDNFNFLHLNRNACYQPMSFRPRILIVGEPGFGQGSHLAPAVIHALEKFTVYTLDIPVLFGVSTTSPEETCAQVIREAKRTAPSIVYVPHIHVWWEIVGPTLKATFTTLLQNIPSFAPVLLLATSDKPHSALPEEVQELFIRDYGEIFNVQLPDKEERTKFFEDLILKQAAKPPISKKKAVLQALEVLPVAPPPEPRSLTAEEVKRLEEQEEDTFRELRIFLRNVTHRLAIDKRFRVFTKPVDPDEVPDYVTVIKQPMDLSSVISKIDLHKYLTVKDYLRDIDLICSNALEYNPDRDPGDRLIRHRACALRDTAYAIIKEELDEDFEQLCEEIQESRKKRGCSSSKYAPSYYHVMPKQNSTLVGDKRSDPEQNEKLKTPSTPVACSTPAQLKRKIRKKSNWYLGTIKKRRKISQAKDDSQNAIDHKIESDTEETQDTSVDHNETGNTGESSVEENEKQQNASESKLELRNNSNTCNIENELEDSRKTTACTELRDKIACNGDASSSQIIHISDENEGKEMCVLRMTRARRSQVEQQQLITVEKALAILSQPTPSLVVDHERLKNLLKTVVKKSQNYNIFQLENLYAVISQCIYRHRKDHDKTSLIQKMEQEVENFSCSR
T5 sequence (O15164 whole entry): as the sequence (O15164 whole entry) above

In the case of `Cc1noc(C)c1-c1ccc2c(c1)[C@H](c1ccccc1)N(C)C2=O` [PNZ5], the ΔTm at 10 µM in assay [1] was 0.13 °C; in [2] it was 0.31 °C; in [3] it was -0.18 °C; in [4], 0.28 °C; in assay [5], 0.06 °C; in [6], 0.3 °C. Besides, the ΔTm at 10 µM in assay [7] came to 0.36 °C; in assay [8] it was 0.86 °C; in [10] it was 11.4 °C. In assay [9], binding was put at a Kd of 5.43 nM.
